Results reported in US9745320B2, “Five-and-six-membered heterocyclic compound, and preparation method, pharmaceutical composition and use thereof” (SHANGHAI CHEMEXPLORER CO., LTD., priority 2013, dated 2017).

Columns and labels:
Type in all cases: biochemical
JAK1 = JAK1 (Homo sapiens, UniProt P23458); test: JAK 1 enzymatic inhibitory activity IC50 assay (Caliper conversion rate); settings: Km ATP, 28° C., 1 hour
Description: (§1) Biological effect: intracytoplasmic JAK 1,2,3 enzymatic inhibitory activity IC50 assay
(§2) JAK1 buffer solution: 25 mM HEPES, pH 7.5, 0.01% Brij-35, 0.01 M Triton. JAK2,3 buffer solution: 50 mM HEPES, pH 7.5, 0.0015% Brij-35.
(§3) 2. Compound was formulated in 100% DMSO in a concentration gradient, deposited to a 384-well plate with a final concentration of 2% of DMSO.
(§4) 3. JAK2,3 enzymes were diluted to having an optimum concentration with the following buffer: 50 mM HEPES, pH 7.5, 0.0015% Brij-35, 2 mM DTT. JAK1 enzyme was diluted to having an optimum concentration with the following buffer: 25 mM HEPES, pH 7.5, 0.01% Brij-35, 2 mM DTT, 0.01M Triton. Then they were transferred to a 384-well plate and incubated with the compound for a certain time.
(§5) 4. JAK2,3 substrate was diluted to having an optimum concentration with the following buffer: 50 mM HEPES, pH 7.5, 0.0015% Brij-35, 10 mM MgCl2, Km adenosine triphosphate. JAK1 substrate was diluted to having an optimum concentration with the following buffer: 25 mM HEPES, pH 7.5, 0.01% Brij-35, 10 mM MgCl2, 0.01 M Triton. Km adenosine triphosphate was added into 384-well plates to initiate reactions, and the reaction were carried out at 28° C. for 1 hour.
(§6) 5. Read the conversion rate by Caliper Reader, and the inhibition rate are calculated according to the average of two tests.

JAK2 = JAK2 (Homo sapiens, UniProt O60674); test: JAK 2 enzymatic inhibitory activity IC50 assay (Caliper conversion rate); settings: Km ATP, 28° C., 1 hour
Sequence of JAK2 (O60674 whole entry, species assumed): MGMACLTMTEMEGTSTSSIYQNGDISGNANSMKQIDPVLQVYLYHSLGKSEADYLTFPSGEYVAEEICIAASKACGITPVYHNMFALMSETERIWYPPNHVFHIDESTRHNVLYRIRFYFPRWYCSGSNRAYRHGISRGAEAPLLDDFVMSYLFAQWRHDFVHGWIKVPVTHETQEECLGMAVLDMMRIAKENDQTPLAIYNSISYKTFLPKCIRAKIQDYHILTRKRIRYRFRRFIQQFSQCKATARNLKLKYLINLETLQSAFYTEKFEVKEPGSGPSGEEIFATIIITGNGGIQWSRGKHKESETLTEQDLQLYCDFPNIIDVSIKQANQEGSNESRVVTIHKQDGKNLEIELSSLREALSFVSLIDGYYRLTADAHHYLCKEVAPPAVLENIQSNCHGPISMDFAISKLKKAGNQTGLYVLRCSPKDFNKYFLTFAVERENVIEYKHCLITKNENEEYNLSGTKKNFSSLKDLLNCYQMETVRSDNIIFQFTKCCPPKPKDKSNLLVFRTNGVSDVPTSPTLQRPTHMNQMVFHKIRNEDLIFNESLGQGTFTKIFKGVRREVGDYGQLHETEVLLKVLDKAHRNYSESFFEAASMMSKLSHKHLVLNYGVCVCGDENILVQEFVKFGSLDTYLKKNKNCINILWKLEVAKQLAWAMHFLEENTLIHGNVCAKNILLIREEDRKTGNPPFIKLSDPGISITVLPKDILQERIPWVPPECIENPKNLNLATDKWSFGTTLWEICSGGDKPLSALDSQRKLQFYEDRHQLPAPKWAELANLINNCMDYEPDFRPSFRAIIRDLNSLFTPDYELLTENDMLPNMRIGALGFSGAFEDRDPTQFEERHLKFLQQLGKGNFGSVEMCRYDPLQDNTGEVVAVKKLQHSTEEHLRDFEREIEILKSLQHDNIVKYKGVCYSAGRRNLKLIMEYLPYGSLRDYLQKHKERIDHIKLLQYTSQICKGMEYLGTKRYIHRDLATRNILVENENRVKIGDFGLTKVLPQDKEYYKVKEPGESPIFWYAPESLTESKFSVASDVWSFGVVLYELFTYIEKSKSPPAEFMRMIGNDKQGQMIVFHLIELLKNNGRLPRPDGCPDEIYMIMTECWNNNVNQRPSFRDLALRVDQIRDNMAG
Description: as §1, §2, §3, §4, §5, §6

JAK3 = target: T1, JAK3 (Homo sapiens, UniProt P52333); test: JAK 3 enzymatic inhibitory activity IC50 assay (Caliper conversion rate); settings: Km ATP, 28° C., 1 hour; read-out: JAK 3 enzymatic inhibitory activity IC50
T1 sequence (P52333 1-1124): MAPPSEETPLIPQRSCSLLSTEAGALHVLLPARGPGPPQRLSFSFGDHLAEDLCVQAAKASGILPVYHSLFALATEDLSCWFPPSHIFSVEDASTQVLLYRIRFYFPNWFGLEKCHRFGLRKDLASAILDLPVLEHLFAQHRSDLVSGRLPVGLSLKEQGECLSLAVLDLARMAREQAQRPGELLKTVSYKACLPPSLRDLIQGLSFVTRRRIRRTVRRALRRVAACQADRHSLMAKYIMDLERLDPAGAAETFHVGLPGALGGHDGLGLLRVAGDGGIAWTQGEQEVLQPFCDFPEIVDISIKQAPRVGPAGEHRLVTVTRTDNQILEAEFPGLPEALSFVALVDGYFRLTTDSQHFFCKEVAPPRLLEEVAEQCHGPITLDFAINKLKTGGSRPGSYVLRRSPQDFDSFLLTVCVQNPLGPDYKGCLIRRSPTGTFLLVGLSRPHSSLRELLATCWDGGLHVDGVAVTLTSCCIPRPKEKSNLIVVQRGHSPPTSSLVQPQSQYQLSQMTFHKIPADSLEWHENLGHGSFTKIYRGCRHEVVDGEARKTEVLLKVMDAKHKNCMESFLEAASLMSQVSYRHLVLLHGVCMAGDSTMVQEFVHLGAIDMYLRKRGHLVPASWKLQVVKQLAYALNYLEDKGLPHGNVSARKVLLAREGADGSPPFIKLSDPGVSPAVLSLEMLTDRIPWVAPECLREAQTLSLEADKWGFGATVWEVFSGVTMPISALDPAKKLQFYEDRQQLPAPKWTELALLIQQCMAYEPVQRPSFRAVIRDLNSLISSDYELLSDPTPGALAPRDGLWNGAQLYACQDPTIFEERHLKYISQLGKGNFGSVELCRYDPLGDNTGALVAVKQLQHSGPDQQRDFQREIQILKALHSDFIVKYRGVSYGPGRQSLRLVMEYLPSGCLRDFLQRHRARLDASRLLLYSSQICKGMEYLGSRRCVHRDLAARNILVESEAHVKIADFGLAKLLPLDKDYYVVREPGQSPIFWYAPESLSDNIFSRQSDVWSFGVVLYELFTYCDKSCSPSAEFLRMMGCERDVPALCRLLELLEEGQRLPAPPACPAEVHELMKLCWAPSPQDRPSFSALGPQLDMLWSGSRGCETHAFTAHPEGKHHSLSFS
Description: as §1, §2, §3
as §4, with “time. […]” for “time.”
as §6

Sequence of JAK1 (P23458 whole entry, species assumed): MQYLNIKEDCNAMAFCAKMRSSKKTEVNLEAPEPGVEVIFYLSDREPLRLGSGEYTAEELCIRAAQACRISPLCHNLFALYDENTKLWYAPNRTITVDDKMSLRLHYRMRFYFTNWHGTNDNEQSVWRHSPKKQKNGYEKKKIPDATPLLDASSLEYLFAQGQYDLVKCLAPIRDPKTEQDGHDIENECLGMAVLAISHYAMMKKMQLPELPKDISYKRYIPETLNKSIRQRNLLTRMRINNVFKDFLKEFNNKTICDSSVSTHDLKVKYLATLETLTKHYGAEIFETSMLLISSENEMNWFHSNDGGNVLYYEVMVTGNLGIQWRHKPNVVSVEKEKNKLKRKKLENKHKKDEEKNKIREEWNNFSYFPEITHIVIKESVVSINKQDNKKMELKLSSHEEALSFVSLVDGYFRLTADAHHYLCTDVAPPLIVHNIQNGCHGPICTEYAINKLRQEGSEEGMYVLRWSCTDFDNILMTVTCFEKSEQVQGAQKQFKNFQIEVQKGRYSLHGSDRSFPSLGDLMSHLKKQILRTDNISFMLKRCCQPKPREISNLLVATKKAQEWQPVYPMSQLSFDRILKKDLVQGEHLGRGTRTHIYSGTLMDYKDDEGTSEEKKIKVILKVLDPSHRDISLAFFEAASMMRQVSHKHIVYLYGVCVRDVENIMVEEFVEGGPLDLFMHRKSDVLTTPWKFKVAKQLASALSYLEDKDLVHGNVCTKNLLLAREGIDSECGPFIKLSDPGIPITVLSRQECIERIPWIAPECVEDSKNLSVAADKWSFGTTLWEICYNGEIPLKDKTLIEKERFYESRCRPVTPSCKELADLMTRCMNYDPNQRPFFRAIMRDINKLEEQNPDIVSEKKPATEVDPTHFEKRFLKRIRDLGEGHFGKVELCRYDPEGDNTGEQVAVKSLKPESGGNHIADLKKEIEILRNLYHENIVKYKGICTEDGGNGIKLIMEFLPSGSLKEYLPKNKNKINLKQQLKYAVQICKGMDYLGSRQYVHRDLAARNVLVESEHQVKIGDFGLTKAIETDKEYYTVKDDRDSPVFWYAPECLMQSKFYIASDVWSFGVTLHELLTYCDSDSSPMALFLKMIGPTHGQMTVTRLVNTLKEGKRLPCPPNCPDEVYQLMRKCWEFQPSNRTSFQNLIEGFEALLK

Row | SMILES | IC50 (JAK1) | IC50 (JAK2) | IC50 (JAK3)
1 | CCS(=O)(=O)N1CC(CC#N)(n2cc(-c3nc(Nc4cncnc4)nc4ccsc34)cn2)C1 [Compound T-14, 2-(1-(Ethylsulfonyl)-3-(4-(2-(pyrimidin-5-ylamino)thieno[3,2-d]pyrimidin-4-yl)-1H-pyrazol-1-yl)azetidin-3-yl)acetonitrile] | 500 to 1000 nM | < 50 nM | > 1000 nM
2 | Cn1cc(Nc2nc(-c3cnn(C4(CC#N)CN(C(=O)CO)C4)c3)c3sccc3n2)cn1 [Compound T-49, 2-(1-(2-Hydroxyacetyl)-3-(4-(2-((1-methyl-1H-pyrazol-4-yl)amino)thieno[3,2-d]pyrimidin-4-yl)-1H-pyrazol-1-yl)azetidin-3-yl)acetonitrile] | 500 to 1000 nM | < 50 nM | 500 to 1000 nM
3 | CCS(=O)(=O)N1CC(CC#N)(n2cc(-c3nc(Nc4ccc(C#N)nc4)nc4ccsc34)cn2)C1 [Compound T-22, 5-((4-(1-(3-(Cyanomethyl)-1-(ethylsulfonyl)azetidin-3-yl)-1H-pyrazol-4-yl)thieno[3,2-d]pyrimidin-2-yl)amino)picolinonitrile] | > 1000 nM | < 50 nM | > 1000 nM
4 | CCS(=O)(=O)N1CC(CC#N)(n2cc(-c3nc(Nc4cnn(CCN5CCOCC5)c4)nc4ccsc34)cn2)C1 [Compound T-53, 2-(1-(Ethylsulfonyl)-3-(4-(2-((1-(2-morpholinoethyl)-1H-pyrazol-4-yl)amino)thieno[3,2-d]pyrimidin-4-yl)-1H-pyrazol-1-yl)azetidin-3-yl)acetonitrile] | 50 to 500 nM | < 50 nM | < 50 nM
5 | CCS(=O)(=O)N1CC(CC#N)(n2cc(-c3nc(Nc4ccccc4)nc4ccoc34)cn2)C1 [Compound T-30, 2-(1-(Ethylsulfonyl)-3-(4-(2-(phenylamino)furo[3,2-d]pyrimidin-4-yl)-1H-pyrazol-1-yl)azetidin-3-yl)acetonitrile] | 50 to 500 nM | < 50 nM | 50 to 500 nM
6 | Cn1cc(Nc2nc(-c3cnn(C4(CC#N)CC4)c3)c3sccc3n2)cn1 [Compound T-75, 2-(1-(4-(2-((1-Methyl-1H-pyrazol-4-yl)amino)thieno[3,2-d]pyrimidin-4-yl)-1H-pyrazol-1-yl)cyclopropyl)acetonitrile] | 50 to 500 nM | < 50 nM | 50 to 500 nM
7 | CCS(=O)(=O)N1CC(CC#N)(n2cc(-c3nc(Nc4ccccc4)nc4cc(C)sc34)cn2)C1 [Compound T-23, 2-(1-(Ethylsulfonyl)-3-(4-(6-methyl-2-(phenylamino)thieno[3,2-d]pyrimidin-4-yl)-1H-pyrazol-1-yl)azetidin-3-yl)acetonitrile] | > 1000 nM | > 1000 nM | > 1000 nM
8 | CCS(=O)(=O)N1CC(CC#N)(n2cc(-c3nc(Nc4cnc(N5CCOCC5)nc4)nc4ccsc34)cn2)C1 [Compound T-63, 2-(1-(Ethylsulfonyl)-3-(4-(2-((2-morpholinopyrimidin-5-yl)amino)thieno[3,2-d]pyrimidin-4-yl)-1H-pyrazol-1-yl)azetidin-3-yl)acetonitrile] | 500 to 1000 nM | < 50 nM | 500 to 1000 nM

Next, values leading:

Row | IC50 (JAK1) | IC50 (JAK2) | IC50 (JAK3) | SMILES
9 | 50 to 500 nM | < 50 nM | 50 to 500 nM | CCS(=O)(=O)N1CC(CC#N)(n2cc(-c3nc(Nc4ccccc4)nc4ccsc34)cn2)C1 [Compound T-05, 2-(1-(Ethylsulfonyl)-3-(4-(2-(phenylamino)thieno[3,2-d]pyrimidin-4-yl)-1H-pyrazol-1-yl)azetidin-3-yl)acetonitrile]
10 | 50 to 500 nM | < 50 nM | 500 to 1000 nM | CCC(=O)N1CC(CC#N)(n2cc(-c3nc(Nc4cnn(C)c4)nc4ccsc34)cn2)C1 [Compound T-46, 2-(3-(4-(2-((1-Methyl-1H-pyrazol-4-yl)amino)thieno[3,2-d]pyrimidin-4-yl)-1H-pyrazol-1-yl)-1-propionylazetidin-3-yl)acetonitrile]
11 | 50 to 500 nM | < 50 nM | 50 to 500 nM | N#CCC1(n2cc(-c3nc(Nc4cnn(C5CC5)c4)nc4ccsc34)cn2)CC1 [Compound T-76, 2-(1-(4-(2-((1-Cyclopropyl-1H-pyrazol-4-yl)amino)thieno[3,2-d]pyrimidin-4-yl)-1H-pyrazol-1-yl)cyclopropyl)acetonitrile]
12 | < 50 nM | < 50 nM | < 50 nM | CCS(=O)(=O)N1CC(CC#N)(n2cc(-c3nc(Nc4cnn(C5CCOCC5)c4)nc4ccsc34)cn2)C1 [Compound T-38, 2-(1-(Ethylsulfonyl)-3-(4-(2-((1-(tetrahydro-2H-pyran-4-yl)-1H-pyrazol-4-yl)amino)thieno[3,2-d]pyrimidin-4-yl)-1H-pyrazol-1-yl)azetidin-3-yl)acetonitrile]
13 | 50 to 500 nM | < 50 nM | 50 to 500 nM | CCS(=O)(=O)N1CC(CC#N)(n2cc(-c3nc(Nc4ccc(C#N)cc4)nc4ccsc34)cn2)C1 [Compound T-19, 4-((4-(1-(3-(Cyanomethyl)-1-(ethylsulfonyl)azetidin-3-yl)-1H-pyrazol-4-yl)thieno[3,2-d]pyrimidin-2-yl)amino)benzonitrile]
14 | < 50 nM | < 50 nM | < 50 nM | CCn1cc(Nc2nc(-c3cnn(C4(CC#N)CN(S(=O)(=O)CC)C4)c3)c3sccc3n2)cn1 [Compound T-40, 2-(3-(4-(2-((1-Ethyl-1H-pyrazol-4-yl)amino)thieno[3,2-d]pyrimidin-4-yl)-1H-pyrazol-1-yl)-1-(ethylsulfonyl)azetidin-3-yl)acetonitrile]
15 | < 50 nM | < 50 nM | < 50 nM | CCS(=O)(=O)N1CC(CC#N)(n2cc(-c3nc(Nc4cc(C)[nH]n4)nc4ccsc34)cn2)C1 [Compound T-72, 2-(1-(Ethylsulfonyl)-3-(4-(2-((5-methyl-1H-pyrazol-3-yl)amino)thieno[3,2-d]pyrimidin-4-yl)-1H-pyrazol-1-yl)azetidin-3-yl)acetonitrile]
16 | < 50 nM | < 50 nM | < 50 nM | CCS(=O)(=O)N1CC(CC#N)(n2cc(-c3nc(Nc4cnn(CCCN5CCOCC5)c4)nc4ccsc34)cn2)C1 [Compound T-60, 2-(1-(Ethylsulfonyl)-3-(4-(2-((1-(3-morpholinopropyl)-1H-pyrazol-4-yl)amino)thieno[3,2-d]pyrimidin-4-yl)-1H-pyrazol-1-yl)azetidin-3-yl)acetonitrile]
17 | < 50 nM | < 50 nM | 50 to 500 nM | CCS(=O)(=O)N1CC(CC#N)(n2cc(-c3nc(Nc4ccc(S(C)(=O)=O)cc4)nc4ccsc34)cn2)C1 [Compound T-12, 2-(1-(Ethylsulfonyl)-3-(4-(2-((4-(methylsulfonyl)phenyl)amino)thieno[3,2-d]pyrimidin-4-yl)-1H-pyrazol-1-yl)azetidin-3-yl)acetonitrile]
18 | < 50 nM | < 50 nM | < 50 nM | CCS(=O)(=O)N1CC(CC#N)(n2cc(-c3nc(Nc4cnn(C(C)C)c4)nc4ccsc34)cn2)C1 [Compound T-41, 2-(1-(Ethylsulfonyl)-3-(4-(2-((1-isopropyl-1H-pyrazol-4-yl)amino)thieno[3,2-d]pyrimidin-4-yl)-1H-pyrazol-1-yl)azetidin-3-yl)acetonitrile]
